Experimental data from ChEMBL document CHEMBL1141061, “Structural elucidation of A-74528, an inhibitor for 2',5'-phosphodiesterase isolated from Streptomyces sp” (Bioorg Med Chem Lett, 2005).
≈ marks a conversion by molar mass, not a printed value.

Test: Inhibitory concentration against human 2'-phosphodiesterase

Which IC50 does the source give for C[C@@H]1c2c(O)cc(O)c3c2[C@H]2[C@H](CC(=O)C4=C(O)c5c(O)cc(O)cc5[C@@H](C3=O)[C@]42Cc2cc(O)cc(=O)o2)[C@H]1O here?
Its IC50 is 34 mg/L (≈ 60.7 µM).
